In patent US20240335429A1, “MOLECULAR GLUE AND SALL4 DEGRADER” (National University of Singapore, priority 2021, published 2024):

Legend:
RBBP4 = assay: Immunoblot of RBBP4 in SNU-398 cells; assay type: cell-based, human; details: 16 μM, 24 h
Description: (§1) RIPA buffer containing freshly added protease inhibitors (2 mM PMSF) and protease inhibitor cocktail was used for cell lysis. The lysed cells were incubated for 10 min on ice and subsequently centrifuged at 4° C. for 10 min at 14,000 rpm. The protein concentrations of cell lysates were assessed using Bradford Assay as per manufacturer's instructions. The samples were denatured using 4× Sample buffer at 95° C. for 5 min. The samples were size resolved using polyacrylamide gel (8%) and Mini-PROTEAN Tetra Cell module. The size-resolved proteins were transferred onto PVDF via electroblotting using Mini Trans-Blot® module. The membrane was blocked using 5% BSA in TBST. The membrane was incubated with appropriate primary antibody (overnight) and secondary antibody (1 h). Immobilon Crescendo Western HRP substrate was used for signal development and images were acquired using darkroom development techniques.
26S proteasome complex and neddylation was inhibited by cotreating MG132 at 1 and 3 μM and MLN4924 at 10 and 15 μM for 18 h, 20 h, 24 h or 48 h with desired concentrations of QE-18-WG07 in SNU-398, H661 and SNU-182 cells. After 18 h or 24 h of treatment, cells were then lysed and subjected to further protein extraction and immunoblotting by following the protocol in Example 4. For caspase glo assay, 20 h of cotreatment was performed by following the protocol in Example 5. […]

SNU-398 xenografts = assay: HCC mouse xenograft, anti-tumor efficacy; assay type: in vivo; details: for tumor shrinkage: 15 days
Description: (§2) Animals were maintained, and all animal work were performed following the protocols approved by the Institutional Animal Care and Use Committee. The SNU-398 cell line was cultured as described above in ‘Cell Culture’. To establish the SNU-398 xenografts, NOD.Cg−Prkdc^sc^i^dIl2rg^tm^1^Wjl/Sz (NSG) female mice (6-8 weeks) were anesthetized using 2% isoflurane USP, and 0.5×10^6 SNU-398 cells in 200 μL of 1:1 RPMI:Matrigel were subcutaneously injected to the mouse flanks. When tumors were palpable, mice were randomized to receive either QE treatment or vehicle containing 5% DMSO, 12.5% Ethanol, and 12.5% Cremophor EL in 70% 1× PBS. Freshly prepared vehicle or QE-18-WG07 was administered by intraperitoneal (IP) injection, once daily (qd) at 10 mg/kg in the pilot study and 5, 15, and 45 mg/kg for dose-expansion studies. Before each drug injection, mouse weight and tumor volume were monitored. Mice were euthanized once tumors reached more than 1.5 cm in diameter. The tumors were harvested, imaged and snap-frozen for storage at −80° C. until later use.

SNU-182 cells = assay: CellTiter-Glo viability assay, SNU-182; assay type: cell-based; details: Homo sapiens, 72 h
Description: (§3) Cells were plated in RPMI culture media (40 μL) in 384-well white, flat-bottom plates (Corning) and incubated at 37° C. in a humidified atmosphere of 5% CO2 overnight. The numbers of cells per well were 1,500 for SNU-398 and SNU-182, 750 for SNU-387, SNU-449, SNU-475 and SNU-423, and 1,000 for H661 and H1299. After overnight incubation, 10 μL of drug (1% DMSO in RPMI) at designed concentrations were added to the cells. The cells were then incubated for 16, 24, 48, 72, or 96 h at 37° C. in a humidified atmosphere of 5% CO2 before CellTiter-Glo reagent (10 μL) was dispensed to the wells. The cells were incubated at room temperature for a minimum of 10 min. After that, luminescence readings were recorded by a Microplate Reader (PHERAstar or Tecan Infinite M200 Pro) according to the manufacturer's instruction for measuring the luminescence.

c-myc = assay: Immunoblot of c-myc (SALL4 downstream target) in SNU-398 cells; assay type: cell-based, human; details: Homo sapiens; SNU-398 HCC cells, 24 h treatment; read-out: suppression of SALL4 downstream target c-myc, IC50
Description: as §1

H661 cells = assay: CellTiter-Glo viability assay, H661; assay type: cell-based; details: Homo sapiens
Description: as §3

[1] = HCC mouse xenograft, tolerability (body, spleen, liver weight); assay type: in vivo
Description: as §2

COc1ccccc1NC(=O)Nc1ccc([N+](=O)[O-])cc1O [QE-18-WG07]
effect on the level of RBBP4 (RBBP4): no observable effect | tumor shrinkage (SNU-398 xenografts; 5 mg/kg IP daily): 40% | reduction of tumor sizes vs vehicle control (SNU-398 xenografts; 10 mg/kg IP daily, 10 days): 64% | tumor shrinkage (SNU-398 xenografts; 15 mg/kg IP daily): 60% | tumor shrinkage (SNU-398 xenografts; 45 mg/kg IP daily): 70% | Emax at 1 µM (SNU-182 cells; achieved at 1 μM, read-out: maximum growth inhibition Emax): 90 to 100% | IC50 (SNU-182 cells; read-out: IC50 of cell viability): 951 nM | IC50 (c-myc): ~5.12 µM | Emax at 1 µM (H661 cells; NCI-H661, 72 h, achieved at 1 μM, read-out: maximum growth inhibition Emax): 90 to 100% | IC50 (H661 cells; NCI-H661, 72 h, read-out: IC50 of cell viability): 522 nM | EC50 (H661 cells; NCI-H661, 72 h cell viability, read-out: half maximal growth inhibition EC50): 420 nM | tolerability (animal weight preservation, normal spleen weight) ([1]; 10 mg/kg daily, 10 days): well tolerated | weight loss in mice compared to vehicle ([1]; 10 mg/kg q.d., 10 days): did not induce significant weight loss | tolerability (negligible weight loss, normal spleen and liver weight) ([1]; 45 mg/kg daily, 2 weeks): well tolerated | weight loss in mice ([1]; 5, 15 and 45 mg/kg q.d., 15 days): did not induce significant weight loss
